Results on 19 molecules are retold here after patent US7807841B2, “Spiro-containing compounds and compositions as modulators of steroid hormone nuclear receptors” (IRM LLC, priority 2005, dated 2010).

The structures appear in SMILES notation.

In general, IC50 refers to the concentration needed to halve the response being measured. A low value points to higher potency.

The assay addresses T1, Androgen Receptor (AR) (Homo sapiens, UniProt P10275).
T1 sequence (P10275 1-920 Q868H): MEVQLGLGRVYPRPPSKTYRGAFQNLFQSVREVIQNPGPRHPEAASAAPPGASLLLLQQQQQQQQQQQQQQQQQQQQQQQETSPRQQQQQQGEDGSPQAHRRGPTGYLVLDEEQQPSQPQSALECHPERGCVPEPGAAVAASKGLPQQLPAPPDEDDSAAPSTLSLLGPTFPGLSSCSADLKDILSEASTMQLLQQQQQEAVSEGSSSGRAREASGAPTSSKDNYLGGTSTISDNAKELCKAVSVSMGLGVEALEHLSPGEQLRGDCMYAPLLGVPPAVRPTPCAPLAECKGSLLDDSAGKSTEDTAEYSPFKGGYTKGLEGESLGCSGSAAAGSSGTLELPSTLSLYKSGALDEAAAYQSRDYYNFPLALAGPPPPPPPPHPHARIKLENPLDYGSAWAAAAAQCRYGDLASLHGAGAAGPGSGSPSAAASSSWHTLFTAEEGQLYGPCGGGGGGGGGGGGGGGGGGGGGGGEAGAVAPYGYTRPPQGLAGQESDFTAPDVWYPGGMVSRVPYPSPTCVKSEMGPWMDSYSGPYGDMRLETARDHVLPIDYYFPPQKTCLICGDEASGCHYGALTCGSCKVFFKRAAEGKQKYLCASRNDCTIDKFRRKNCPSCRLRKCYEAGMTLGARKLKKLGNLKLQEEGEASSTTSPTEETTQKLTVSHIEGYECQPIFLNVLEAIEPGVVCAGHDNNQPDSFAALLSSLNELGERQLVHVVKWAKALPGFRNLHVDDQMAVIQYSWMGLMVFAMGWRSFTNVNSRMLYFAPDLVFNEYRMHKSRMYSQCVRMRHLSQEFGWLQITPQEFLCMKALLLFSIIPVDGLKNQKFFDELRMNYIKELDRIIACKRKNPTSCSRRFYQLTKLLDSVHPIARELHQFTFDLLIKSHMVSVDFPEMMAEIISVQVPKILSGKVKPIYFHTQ
The experiment in a line: Functional assay of androgen receptor antagonism (MMTV luciferase reporter in MDA-kb2 cells). In kind it is cell-based. To be noted: antagonism of dihydrotestosterone (0.3 nM)-induced AR activity. How it is done: The AR antagonist activity of the compounds is determined with the MDA-Kb2 cell line (ATCC), which stably expresses the MMTV luciferase reporter. The MMTV promoter is a mouse mammary tumor virus promoter that contains androgen receptor response elements. […] Upon stimulation with AR ligands, such as dihydrotestosterone, the MMTV luciferase reporter can be activated.
The assay is performed in 384 well plates. Briefly, MDA-kb2 cells are plated in 384 well plates at a density of approximately 2.4×10^4 cells/well in 50 μl medium. The medium is supplemented with 5% charcoal-dextran treated fetal bovine serum (Hyclone). Twenty four hours later, compounds prepared in DMSO are transferred to the cells. The cells are then stimulated with 0.3 nM final concentration of dihydrotestosterone (Sigma) and incubated at 37° C. for another 24 hours before the luciferase activity is assayed with 20 μl of Bright-Glo (Promega) using a luminometer (CLIPR). The expression of luciferase is used as an indicator of dihydrotestosterone-induced AR trans-activation. Each compound is tested in duplicates with a 12-concentration titration. IC50 values (defined as the concentration of test compound required to antagonize 50% of dihydrotestosterone-induced AR activity) are determined from the dose-response curve.
The molecule `CCCC12CCC(=O)N1CC1(O2)c2ccccc2C=Cc2ccccc21` (stereo not shown) [FRS-9] showed a half-inhibitory concentration (IC50) of 0.1 to 1 µM.

On to `CC(=O)N1CC2(OC1(C)C)c1ccccc1C=Cc1ccccc12` [SOXS-3], for which the IC50 fell in the range of 1 to 10 µM.

With `CC12CCC(=O)N1CC1(O2)c2ccccc2C=Cc2ccccc21` (single isomer, unassigned) [FRS-1 (Chiral Synthesis)], the half-maximal inhibitory concentration (IC50) was in the range of 0.1 to 1 µM.

Turning to `CC(=O)N1CC2(OC13CCCCC3)c1ccccc1C=Cc1ccccc12` [SOXS-6], the half-maximal inhibitory concentration (IC50) is 1 to 10 µM.

Molecule `CC12CCCC(=O)N1CC1(O2)c2ccccc2C=Cc2ccccc21` (stereo not shown) [FRS-4] had a 50% inhibitory concentration (IC50) above 10 µM.

For the molecule `Oc1ccc(C2=NCC3(O2)c2ccccc2C=Cc2ccccc23)cc1` [OXS-1], the 50% inhibitory concentration (IC50) fell in the range of 1 to 10 µM.

Consider `O=C1CCC2(c3ccccc3)OC3(CN12)c1ccccc1C=Cc1ccccc13` (stereo not shown) [FRS-2], for which the half-inhibitory concentration (IC50) was 0.1 to 1 µM.

Take `O=C1CCCC2(C(F)(F)F)OC3(CN12)c1ccccc1C=Cc1ccccc13` (stereo not shown) [FRS-11]: the half-maximal inhibitory concentration (IC50) fell in the range of 0.1 to 1 µM.

The molecule `O=C1CCC2(c3cccs3)OC3(CN12)c1ccccc1C=Cc1ccccc13` (stereo not shown) [FRS-8] yielded a concentration for half-maximal inhibition (IC50) of 0.1 to 1 µM.

Turning to `CC1(C)OC2(CN1S(C)(=O)=O)c1ccccc1C=Cc1ccccc12` [SOXS-4], the IC50 fell in the range of 1 to 10 µM.

As for `CC1(C)OC2(CN1C(=O)Nc1ccc(F)cc1F)c1ccccc1C=Cc1ccccc12` [SOXS-1], the IC50 was above 10 µM.

With `CC12CCC(=O)N1CC1(O2)c2ccccc2CCc2ccccc21` (single isomer, unassigned) [FRS-13 (Chiral Synthesis)], the concentration for half-maximal inhibition (IC50) lay in the range of 0.1 to 1 µM.

Regarding `CC12CCCC(=O)N1CC1(O2)c2ccccc2CCc2ccccc21` (stereo not shown) [FRS-14], the IC50 was in the range of 1 to 10 µM.

`CC12CCC(=O)N1CC1(O2)c2ccccc2C=Cc2ccccc21` (stereo not shown) [FRS-1]: the concentration for half-maximal inhibition (IC50) was in the range of 0.1 to 1 µM.

Turning to `CC12CCCCC(=O)N1CC1(O2)c2ccccc2C=Cc2ccccc21` (stereo not shown) [FRS-6], the IC50 was in the range of 1 to 10 µM.

For `COc1ccc(C23CCC(=O)N2CC2(O3)c3ccccc3C=Cc3ccccc32)cc1` (stereo not shown) [FRS-5], the IC50 is above 10 µM.

Take `O=C1CCC2(C3CC3)OC3(CN12)c1ccccc1C=Cc1ccccc13` (stereo not shown) [FRS-10]: the concentration for half-maximal inhibition (IC50) was 0.1 to 1 µM.

Take `O=C1CCC2(c3ccc(F)cc3)OC3(CN12)c1ccccc1C=Cc1ccccc13` (stereo not shown) [FRS-3]: the concentration for half-maximal inhibition (IC50) was in the range of 1 to 10 µM.

In the case of `CC12CCC(=O)N1CC1(O2)c2ccccc2CCc2ccccc21` (stereo not shown) [FRS-13], the IC50 was 0.1 to 1 µM.
